US10676461B2, “Heterocyclic compound” (TAKEDA PHARMACEUTICAL COMPANY LIMITED, priority 2016, dated 2020)

System: sphingomyelin in the cerebral cortex
Assay: Efficacy evaluation test using sphingomyelin accumulation model mouse (Niemann-Pick disease type A and type B model)
Assay type: in vivo, mouse (C57BL/6J Jcl)
Settings: for Amount of sphingomyelin per wet weight of cerebral cortex: twice daily, 2 wk, imipramine hydrochloride 40 mg/kg i.p. once daily, 4 wk, male mouse, Mean ± S.D., N = 7-8
From the text: Test Example 4 Efficacy Evaluation Test Using Sphingomyelin Accumulation Model Mouse as Niemann-Pick Disease Type A and Type B Model
A phase 1b clinical trial on Niemann-Pick disease type B which develops by abnormality in acid sphingomyelinase has reported that the administration of recombinant acid sphingomyelinase (olipudase alfa) decreased sphingomyelin accumulated in a peripheral organ such as the liver, and this led to the amelioration of the pathological condition (Am J Surg Pathol. 2016; 40: 1232).
Also, the intraperitoneal administration of an acid sphingomyelinase inhibitor, imipramine hydrochloride, to a mouse increases its enzyme substrate, sphingomyelin, not only in a peripheral organ such as the liver but in the central nervous system such as the cerebrum, and the mouse obtained by such administration is recognized as an animal model that can induce sphingomyelin accumulation, as in human Niemann-Pick disease type A and type B, in each tissue (Gen Physiol Biophys 2016; 35: 195).
Accordingly, the compound of the present invention was evaluated as a SPT inhibitor for its sphingomyelin-lowering effect on Niemann-Pick disease type B, and Niemann-Pick disease type A, which also accumulates sphingomyelin in the central nervous system such as the cerebral cortex, by the following method. Imipramine hydrochloride (Wako Pure Chemical Industries, Ltd.) was dissolved at a concentration of 2 mg/mL in saline and intraperitoneally administered at a dose of 40 mg/kg to each 6-week-old male C57BL/6J Jcl mouse (CLEA Japan, Inc.) for 2 weeks once daily. […] In this operation, the intraperitoneal administration of imipramine hydrochloride was also carried out once daily concurrently therewith. After the completion of the administration of the SPT inhibitor, the cerebrum was excised from the mouse cranium and separated into the cortex and the medulla. The cortical portion was rapidly frozen in liquid nitrogen and then disrupted using ShakeMaster Auto (Bio-Medical Science Co., Ltd.) under freezing. 2-Propanol (containing 0.002% of BHT (dibutylhydroxytoluene as a fat and oil antioxidant) was added thereto in an amount of 9 mL/g of wet weight, and lipids in the cerebral cortex were extracted by suspension using ShakeMaster Auto again. The concentration of sphingomyelin contained in the 2-propanol was measured using a sphingomyelin assay kit (Abcam, Inc., ab138877) based on the fluorescence quantification method. EnVision 2102 Multilabel Reader (PerkinElmer Inc.) was used in fluorescence measurement.
From this, it was able to be confirmed that a model mimicking Niemann-Pick disease type A and type B which accumulate sphingomyelin in the cerebral cortex was established by the intraperitoneal administration of imipramine hydrochloride for 4 weeks.

SMILES: Cn1nc(C(=O)N[C@@H]2CCN(C(=O)c3cc(Cl)c4nccnc4c3)C[C@@H]2c2ccc(F)cc2)cc1C(F)(F)F [Example 1, N-((3S,4R)-1-((8-Chloroquinoxalin-6-yl)carbonyl)-3-(4-fluorophenyl)piperidin-4-yl)-1-methyl-5-(trifluoromethyl)-1H-pyrazole-3-carboxamide]
- Amount of sphingomyelin per wet weight of cerebral cortex (group 3: 0.3 mg/kg oral): 3.282 ± 0.260 µg/g
- Amount of sphingomyelin per wet weight of cerebral cortex (group 4: 1.0 mg/kg oral): 2.972 ± 0.635 µg/g
- Amount of sphingomyelin per wet weight of cerebral cortex (group 5: 3.0 mg/kg oral): 2.952 ± 0.219 µg/g
- effect of suppressing sphingomyelin accumulation in the cerebral cortex (oral, 2 weeks twice daily, single dose 0.3, 1.0 and 3.0 mg/kg, imipramine model mouse, p<0.025, one-tailed Williams' test): dose-dependent significant effect of suppressing sphingomyelin accumulation in the cerebral cortex
